Data published in article PMC12670425, “Mechanistic Characterization of a Small Molecule as a Direct NLRP3 Inhibitor via Binding to the NACHT Domain” (Journal of Medicinal Chemistry, 2025).

Tests used:
NLRP3 [1] = molecular target: T1, NLRP3 (Mus musculus, UniProt Q8R4B8); assay: Photoaffinity labeling of recombinant NLRP3 with YM-I-27 and NBD-Azide click, with competition; type: binding
T1 construct: The recombinant full-length NLRP3 protein was expressed and purified as previously described using Expi293F cells; FLAG (N); host or cells: Expi293F
T1 sequence (Q8R4B8 whole entry): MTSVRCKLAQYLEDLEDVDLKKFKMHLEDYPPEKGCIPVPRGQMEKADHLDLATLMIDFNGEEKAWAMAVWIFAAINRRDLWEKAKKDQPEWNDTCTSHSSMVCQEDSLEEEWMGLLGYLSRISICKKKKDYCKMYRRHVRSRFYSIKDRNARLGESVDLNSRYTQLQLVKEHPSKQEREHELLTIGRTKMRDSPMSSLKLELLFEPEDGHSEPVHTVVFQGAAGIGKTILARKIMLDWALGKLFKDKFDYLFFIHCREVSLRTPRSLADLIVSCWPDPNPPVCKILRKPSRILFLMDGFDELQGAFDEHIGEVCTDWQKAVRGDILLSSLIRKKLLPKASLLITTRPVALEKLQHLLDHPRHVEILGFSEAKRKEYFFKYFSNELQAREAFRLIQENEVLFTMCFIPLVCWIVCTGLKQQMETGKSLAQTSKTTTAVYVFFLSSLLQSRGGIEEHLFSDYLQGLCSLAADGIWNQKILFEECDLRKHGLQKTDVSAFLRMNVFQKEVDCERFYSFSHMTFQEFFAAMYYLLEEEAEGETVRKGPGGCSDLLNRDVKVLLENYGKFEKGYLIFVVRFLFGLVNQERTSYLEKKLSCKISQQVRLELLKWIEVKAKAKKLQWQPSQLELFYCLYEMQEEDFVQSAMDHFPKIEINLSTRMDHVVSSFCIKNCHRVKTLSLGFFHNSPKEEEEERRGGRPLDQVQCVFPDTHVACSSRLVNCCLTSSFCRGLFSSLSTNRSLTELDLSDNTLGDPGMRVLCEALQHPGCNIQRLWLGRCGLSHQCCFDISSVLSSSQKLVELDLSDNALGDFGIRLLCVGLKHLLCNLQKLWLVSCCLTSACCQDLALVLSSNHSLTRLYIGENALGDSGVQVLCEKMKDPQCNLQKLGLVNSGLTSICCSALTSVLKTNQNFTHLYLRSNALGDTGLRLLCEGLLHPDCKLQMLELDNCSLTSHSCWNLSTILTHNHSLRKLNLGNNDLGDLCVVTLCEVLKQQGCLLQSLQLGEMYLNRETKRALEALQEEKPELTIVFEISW
Method: 30 μL aliquots of recombinant NLRP3 or a mixture of J774A.1 cell lysate and NLRP3 were incubated with or without YM-I-27 at the indicated concentrations at 37 °C for 30 min. The samples were then placed on ice and irradiated at 365 nm for 15 min. Subsequently, 1 μL of NBD-Azide (5 mM) or Biotin-PEG3-Azide (5 mM) was added to the samples, followed by the addition of 1 μL of CuSO4 (50 mM), tris(benzyltriazolylmethyl)-amine (TBTA) (30 mM), and tris(2-carboxyethyl)-phosphine (TCEP) (100 mM). The CuAAC reactions were agitated at room temperature for 1 h, and proteins were precipitated with prechilled methanol and left to dry. The protein pellets were then suspended in 30 μL of 2x SDS loading buffer and heated for 10 min at 95 °C. […] The Biotin-PEG3-Azide-labeled proteins were then transferred to membranes and analyzed by Western blotting using streptavidin-HRP and NLRP3 antibodies, respectively.

NLRP3 inflammasome = molecular target: T2, NLRP3 inflammasome (Mus musculus, UniProt Q8R4B8); assay: IL-1β production in J774A.1 cells upon NLRP3 inflammasome activation (ELISA); type: cell-based, murine; settings: for IC50: LPS/ATP activation
T2 construct: endogenous in cells; host or cells: J774A.1 murine macrophages (LPS- or Pam3CSK4-primed)
Method: The levels of IL-1β and TNF-α in the supernatant were measured by ELISA.

NLRP3 [2] = molecular target: T1, NLRP3; assay: In situ proteome click labeling in J774A.1 cell lysate spiked with NLRP3; type: binding, murine; settings: YM-I-27 3 and 10 μM; Biotin-PEG3-Azide click; J774A.1 lysate:NLRP3 20:1
Method: 30 μL aliquots of recombinant NLRP3 or a mixture of J774A.1 cell lysate and NLRP3 were incubated with or without YM-I-27 at the indicated concentrations at 37 °C for 30 min. The samples were then placed on ice and irradiated at 365 nm for 15 min. Subsequently, 1 μL of NBD-Azide (5 mM) or Biotin-PEG3-Azide (5 mM) was added to the samples, followed by the addition of 1 μL of CuSO4 (50 mM), tris(benzyltriazolylmethyl)-amine (TBTA) (30 mM), and tris(2-carboxyethyl)-phosphine (TCEP) (100 mM). The CuAAC reactions were agitated at room temperature for 1 h, and proteins were precipitated with prechilled methanol and left to dry. The protein pellets were then suspended in 30 μL of 2x SDS loading buffer and heated for 10 min at 95 °C. The SDS-PAGE gels of NBD-Azide-labeled proteins were then washed with washing buffer (10% acetic acid, 40% methanol in water) for 2 h and imaged using ChemiDoc MP Imaging System (Bio-Rad) with Alexa Fluor 488 (λex = 490 nm, λem = 525 nm). The Biotin-PEG3-Azide-labeled proteins were then transferred to membranes and analyzed by Western blotting using streptavidin-HRP and NLRP3 antibodies, respectively.

endogenous NLRP3 = molecular target: T3, endogenous NLRP3 (Mus musculus, UniProt Q8R4B8); assay: Immunocytochemistry FRET assay in J774A.1 cells; type: cell-based, murine; settings: LPS-treated J774A.1 cells; TAMRA acceptor clicked to probe
T3 construct: endogenous in cells; host or cells: J774A.1 murine macrophages (LPS- or Pam3CSK4-primed)
Method: J774A.1 cells were treated with 1 μg/mL LPS for 4.5 h, and the photoactive probe (YM-I-27) was added and incubated for 30 min. Cells were irradiated at 365 nm for 30 min on ice and were fixed and permeabilized following the Immunofluorescence Microscopy procedures. The click reaction was performed in PBS containing TAMRA-N3 (30 μM), CuSO4 (800 μM), TBTA (500 μM), and TCEP (500 μM) at room temperature in the dark for 2.5 h. Cells were thoroughly washed with PBS and blocked by following the above procedures. Cells were then treated with anti-NLRP3 (cryo-2, 1:200) for 1.5 h, followed by Alexa Fluor 488-conjugated antimouse secondary antibody (Thermo Fisher, 4 μg/mL). Coverslips were mounted to slides, and data were acquired using a Zeiss LSM710 confocal microscope (Zeiss) and a 440 nm pulsed laser. The difference in the fluorescence lifetime was calculated by subtracting the median lifetime of Alexa Fluor 488 (donor) in the absence and presence of the YM-I-27 probe clicked with TAMRA (acceptor).

NLRP3, NEK7, ASC = molecular target: T4, NLRP3, NEK7, ASC (Mus musculus, UniProt Q8R4B8); assay: Photoaffinity labeling and pull-down with YM-I-85 in LPS-primed J774A.1 cell lysates; type: binding, murine; settings: UV irradiation
T4 construct: endogenous in cells; host or cells: J774A.1 murine macrophages (LPS- or Pam3CSK4-primed)
Method: LPS-primed J774A.1 cells were lysed with NP-40 lysis buffer (50 mM Tris-HCl at pH 8, 150 mM NaCl, 1.0% NP-40, supplemented with cOmplete mini protease inhibitor cocktail) and centrifuged at 20,000g for 20 min at 4 °C. The supernatant was diluted to a concentration of 1.2 mg/mL and incubated with the competing compound for 1 h on ice, followed by incubation with YM-I-85 for 1 h on ice. Samples were irradiated at 365 nm for 15 min and then incubated with Streptavidin Agarose Resin (Thermo Fisher) overnight at 4 °C. The resins were washed once with 0.1% SDS in PBS and twice with 1% NP-40 in PBS before eluting with SDS-PAGE loading buffer and boiling. Beads were spun down, and the supernatants were analyzed by immunoblotting.

[3] = molecular target: T5, recombinant human NLRP3 protein (Homo sapiens, UniProt Q96P20); assay: Microscale thermophoresis (MST); type: binding; settings: n = 3
T5 construct: The recombinant full-length NLRP3 protein was expressed and purified as previously described using Expi293F cells; 10His (N); 6His (C); made in house; host or cells: Expi293F
T5 sequence (Q96P20 whole entry): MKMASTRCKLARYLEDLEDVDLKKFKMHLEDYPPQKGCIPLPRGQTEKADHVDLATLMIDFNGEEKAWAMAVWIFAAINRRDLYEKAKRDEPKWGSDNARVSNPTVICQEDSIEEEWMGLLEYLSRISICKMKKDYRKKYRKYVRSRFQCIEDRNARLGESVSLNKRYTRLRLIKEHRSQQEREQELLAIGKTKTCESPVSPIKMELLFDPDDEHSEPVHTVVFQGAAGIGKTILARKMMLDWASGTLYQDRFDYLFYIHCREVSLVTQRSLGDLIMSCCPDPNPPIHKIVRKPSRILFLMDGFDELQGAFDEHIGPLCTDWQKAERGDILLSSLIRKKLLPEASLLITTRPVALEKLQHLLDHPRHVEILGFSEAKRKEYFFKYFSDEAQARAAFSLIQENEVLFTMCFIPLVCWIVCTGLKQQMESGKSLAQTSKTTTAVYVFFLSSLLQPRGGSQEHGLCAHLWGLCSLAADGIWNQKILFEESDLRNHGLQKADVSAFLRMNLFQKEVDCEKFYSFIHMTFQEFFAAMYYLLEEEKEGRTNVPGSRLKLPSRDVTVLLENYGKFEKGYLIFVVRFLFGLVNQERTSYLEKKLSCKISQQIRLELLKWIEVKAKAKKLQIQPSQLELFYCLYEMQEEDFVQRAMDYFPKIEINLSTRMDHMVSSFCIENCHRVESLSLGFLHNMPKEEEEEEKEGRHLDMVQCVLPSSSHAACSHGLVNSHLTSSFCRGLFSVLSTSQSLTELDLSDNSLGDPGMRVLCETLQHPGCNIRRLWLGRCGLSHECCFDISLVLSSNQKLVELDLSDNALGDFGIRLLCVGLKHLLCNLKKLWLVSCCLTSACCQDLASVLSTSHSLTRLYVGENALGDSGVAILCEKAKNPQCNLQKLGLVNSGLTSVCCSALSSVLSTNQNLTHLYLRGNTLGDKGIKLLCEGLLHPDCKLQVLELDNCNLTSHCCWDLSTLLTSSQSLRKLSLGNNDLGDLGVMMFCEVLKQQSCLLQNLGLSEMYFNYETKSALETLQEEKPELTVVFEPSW
Method: The binding affinity was measured with a Monolith NT.Automated instrument as described previously. Recombinant human NLRP3 protein (500 nM) was labeled with 50 nM RED-tris-NTA dye (NanoTemper Technologies, MO-L018). […] The samples were loaded into NanoTemper glass capillaries, and thermophoresis curves were analyzed using the instrument.

caspase-1 = molecular target: T6, caspase-1 (Homo sapiens, UniProt P29466); assay: In vitro caspase-1 cleavage assay (recombinant YTHDF2 substrate); settings: recombinant caspase-1; YQ128 1, 3 and 10 μM
T6 sequence (P29466 120-297 limits assumed): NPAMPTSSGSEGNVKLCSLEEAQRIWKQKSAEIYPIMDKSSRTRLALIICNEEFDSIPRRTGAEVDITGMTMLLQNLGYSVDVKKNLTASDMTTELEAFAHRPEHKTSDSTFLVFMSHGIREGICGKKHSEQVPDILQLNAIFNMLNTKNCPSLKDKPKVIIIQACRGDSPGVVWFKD
T6 sequence (P29466 317-404 limits assumed): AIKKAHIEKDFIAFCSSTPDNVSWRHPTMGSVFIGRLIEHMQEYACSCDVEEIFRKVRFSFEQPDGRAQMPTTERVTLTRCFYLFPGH
Method: The reactions were then terminated by boiling in 2× SDS sample buffer, and the samples were analyzed by Western blotting.

ASC specks = assay: ASC speck formation by immunofluorescence in J774A.1 cells; type: cell-based, murine; settings: LPS/nigericin, YQ128 10 and 20 μM
Method: J774A.1 cells were seeded onto poly-D-lysine-coated glass coverslips in a 12-well plate (1 × 10^6 cells/well) and cultured in their respective growth medium, allowing them to attach overnight at 37 °C. For ASC speck formation, cells were treated with 1 μg/mL LPS for 4.5 h with different doses of compound treatments during the last hour, followed by treatment with 10 μM nigericin for 1.5 h. Cells were fixed with 4% paraformaldehyde, permeabilized with 0.1% Triton X-100 in PBS, and then blocked with 1% BSA and 0.1% Tween-20 in PBS. […] Nuclei were stained with DAPI (2 μg/mL), and coverslips were mounted onto slides using Epredia Immuno-Mount (Fisher Scientific). Images were acquired using a Zeiss LSM700 confocal microscope (Zeiss).

TNF-α = TNF-α production in J774A.1 cells under LPS/nigericin (ELISA); type: cell-based, murine
[4] = system: caspase-1 and GSDMD cleavage; assay: Western blot of cleavage of caspase-1 and GSDMD in J774A.1 cells; type: cell-based, murine; settings: LPS 10 μg/mL/nigericin 10 μM
Method: J774A.1 cells were seeded into a 24-well plate at 0.6 × 10^6 cells/well and allowed to attach overnight at 37 °C. For the priming, cells were treated with compounds for 1 h, followed by 1 μg/mL LPS treatment for 4.5 h. Cells were lysed in RIPA buffer, and cell lysates were analyzed by immunoblotting. For the activation, cells were treated with 10 μg/mL LPS for 4.5 h. Compounds were added during the last hour of LPS treatment. Then, cells were treated with 10 μM nigericin for 1 h. Cells were lysed in RIPA buffer, and cell lysates were analyzed by immunoblotting.
Protein samples were prepared with 4x Laemmli sample buffer (Bio-Rad) supplemented with β-mercaptoethanol, followed by boiling for 5–10 min. Samples were then resolved by SDS-PAGE and dry-transferred to poly­(vinyl difluoride) (PVDF) membranes using a Trans-Blot Turbo transfer system (Bio-Rad). Membranes were blocked in 5% (w/v) dried milk or BSA in TBS (Bio-Rad) supplemented with 0.1% (v/v) Tween-20 (TBS-T) for 1 h at room temperature or overnight at 4 °C. Membranes were then incubated with primary antibody, followed by a horseradish peroxidase (HRP)-conjugated secondary antibody, each diluted in 5% (w/v) dried milk or BSA in TBS-T for 1–2 h at room temperature or overnight at 4 °C. Membranes were developed with Clarity Western ECL substrate (Bio-Rad) and visualized for chemiluminescence using an Amersham Imager 680. […]

[5] = system: NLRP3 and pro-IL-1β expression; assay: Western blot of LPS-induced NLRP3 and pro-IL-1β (priming stage) in J774A.1 cells; type: cell-based, murine; settings: YQ128 10 μM, curcumin 150 μM, MCC950 1 μM, LPS 1 μg/mL
[6] = system: full-length NLRP3, PYD-NACHT fragment, PYD fragment; assay: Drug affinity responsive target stability (DARTS); type: binding, human; settings: YQ128 50 μM; 50–200 ng Pronase per μg protein
Method: Then, 0.1 mg/mL Pronase (Sigma-Aldrich) was added at the protease to protein ratio, between 50 and 200 ng Pronase per μg of protein for 7.5–30 min at room temperature. The reaction was stopped by the addition of a 20x protease inhibitor cocktail and incubated on ice for 10 min. Protein samples were analyzed by immunoblotting.

NLRP3 NACHT domain = molecular target: T7, NLRP3 NACHT domain (Homo sapiens, UniProt Q96P20); assay: Surface plasmon resonance (SPR); type: binding; settings: biotinylated NACHT protein; single-cycle kinetics, 1:1 model
T7 construct: (K131-L679)-Avi plasmid; 8His-Strep II-ZZ-TEV site (N, cleaved yes); made in house; host or cells: Sf21 insect cells (baculovirus)
T7 sequence (Q96P20 131-679): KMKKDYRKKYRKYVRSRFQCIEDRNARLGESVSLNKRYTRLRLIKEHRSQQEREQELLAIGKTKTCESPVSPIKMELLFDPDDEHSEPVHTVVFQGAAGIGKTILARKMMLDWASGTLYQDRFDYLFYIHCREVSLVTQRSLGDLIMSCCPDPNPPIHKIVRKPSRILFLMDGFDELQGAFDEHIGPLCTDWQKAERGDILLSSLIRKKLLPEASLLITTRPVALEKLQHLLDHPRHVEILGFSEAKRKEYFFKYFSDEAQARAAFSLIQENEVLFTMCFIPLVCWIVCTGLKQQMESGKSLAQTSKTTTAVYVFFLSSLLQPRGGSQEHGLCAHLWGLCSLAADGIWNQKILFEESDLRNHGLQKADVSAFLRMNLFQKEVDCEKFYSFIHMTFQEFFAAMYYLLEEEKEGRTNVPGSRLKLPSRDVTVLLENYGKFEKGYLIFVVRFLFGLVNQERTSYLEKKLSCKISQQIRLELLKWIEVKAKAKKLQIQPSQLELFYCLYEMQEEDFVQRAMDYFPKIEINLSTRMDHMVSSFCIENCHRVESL
Method: Human biotinylated-NACHT domain of NLRP3 was expressed in Sf21 insect cells using the pFastBac1–8His-Strep II-ZZ-TEV-NLRP3­(K131-L679)-Avi plasmid. For protein expression, 1.6 L of insect cells were cultured with a viral stock of the second passage for 48 h at 27 °C. Cells were collected, lysed in lysis buffer (50 mM HEPES pH 7.5, 500 mM NaCl, 10% glycerol, 1 mM MgCl2, 1 mM TCEP, 100 μM ATP) and centrifuged at 16,000 rpm for 60 min. The supernatant was loaded onto a Ni Bestarose FF column and eluted with lysis buffer containing 300 mM imidazole. The sample was biotinylated in a tube containing BirA enzyme (1:100 (w/w) to protein) with biotin buffer and TEV protease (1:10 (w/w) to protein), and the reaction was incubated at 4 °C overnight. The sample was collected and eluted with a lysis buffer containing 75 mM biotin from Strep-Tactin XT columns. The biotinylated NACHT protein was further purified with HiLoad 16/600 Superdex 200 pg column with an elution buffer (50 mM HEPES pH 7.5, 500 mM NaCl, 10% glycerol, 1 mM MgCl2, 1 mM TCEP).
SPR experiments were performed on a Biacore 1K system with streptavidin sensor chip (Series S Sensor Chip SA, Cytiva) according to the reported procedure. The system was flushed with running buffer (10 mM HEPES, pH 7.4, 150 mM NaCl, 0.5 mM ADP, 0.5 mM TCEP, 2 mM MgCl2, 0.05% Tween 20, 2% DMSO). […]

mitochondrial ROS = assay: Mitochondrial ROS and integrity (MitoSOX/MitoTracker) in J774A.1 cells; type: cell-based, murine; settings: LPS/nigericin, YQ128 10 μM
Method: J774A.1 cells (5 × 10^5 cells/mL) were plated in 12-well plates precoated with poly-L-lysine overnight. […] The supernatants were discarded, and the cells were washed with ice-cold PBS three times and fixed with 4% PFA in PBS for 15 min. DAPI (5 μg/mL) was used for nuclear staining. After that, the cells were washed with PBS three times, and fluorescence microscopy analyses were carried out using an Olympus IX73.
Figure S2. J774A.1 were primed with LPS (1 μg/mL) for 4.5 h and treated with or […]
h. Cells were stained with MitoSOX and MitoTracker red. Nuclei were stained with […]
Figure S3. YQ128 (A&B) and MCC950 (C&D) dose-dependently block the recognition of NLRP3 by D4D8T antibody. […]

Q: O=C(O)c1ccc(/C=C2/SC(=S)N(Cc3cccc(C(F)(F)F)c3)C2=O)cc1 [CY-09, reference compound] was tested. Which “competition of YM-I-27 labeling of NLRP3” value (NLRP3 [1]; recombinant NLRP3 preincubated with competitor) did it give?
A: completely blocked the interaction

Q: Which results are given for C#CCCC1(CCOc2ccc(Cl)cc2CN(CCc2ccc(S(=O)(=O)NCC#C)cc2)C(=O)Cc2ccsc2)N=N1 [YM-I-27]?
A: IC50 (NLRP3 inflammasome): 500 nM; labeling of recombinant NLRP3 protein by probe (NLRP3 [1]; UV cross-linking, NBD-N3 click, fluorescent visualization): dose-dependently labeled the NLRP3 protein; in situ proteome labeling (NLRP3 [2]): successfully and efficiently recognized NLRP3 along with four other proteins; decrease of emission lifetime of Alexa Fluor 488 (FRET donor) (endogenous NLRP3): ~44 ps

Q: How did the IC50 (NLRP3 inflammasome) turn out when C#CCNS(=O)(=O)c1ccc(CCN(Cc2cc(Cl)ccc2OCCC2(CCc3cn(CCOCCOCCNC(=O)CCCCC4SCC5NC(=O)NC54)nn3)N=N2)C(=O)Cc2ccsc2)cc1 (centres unmarked) [YM-I-85] was run?
A: 2400 nM

Q: What about the “potency relative to YQ128 (fold less)” value (NLRP3 inflammasome; LPS/ATP, IL-1β) of the same molecule?
A: ~8 fold

Q: What about the “photoaffinity labeling of proteins by probe (pull-down, Western blot)” value (NLRP3, NEK7, ASC) of the same molecule?
A: efficiently labeled NLRP3 and NEK7 in a dose-dependent manner but not ASC

Q: For C#CCNS(=O)(=O)c1ccc(CCN(Cc2cc(Cl)ccc2OCCC)C(=O)Cc2ccsc2)cc1 [YQ128], which Kd [3] is on record?
A: 117 nM

Q: What about the “catalytic activity of caspase-1” value (caspase-1) of the same molecule?
A: does not interfere with the catalytic activity of caspase-1

Q: And the “formation of ASC specks” value (ASC specks)?
A: significantly suppressed the formation of ASC specks

Q: And the “production of TNF-α” value (TNF-α)?
A: No inhibition

Q: And the “cleavage of caspase-1 and GSDMD” value [4]?
A: inhibitory effect

Q: What about the “levels of LPS-induced pro-IL-1β and NLRP3” value [5] of the same molecule?
A: neither YQ128 nor MCC950 changed the levels

Q: And the “Pronase digestion pattern (DARTS)” value [6]?
A: the digestion pattern of the full-length NLRP3 and the PYD-NACHT fragment, but not the PYD fragment, by Pronase was altered

Q: What about the Kd (NLRP3 NACHT domain) of the same molecule?
A: 165 nM

Q: What about the “production of mitochondrial ROS and integrity” value (mitochondrial ROS) of the same molecule?
A: no significant effect
